Source: ChEMBL document CHEMBL1201862, “PubChem BioAssay data set” (2004)
Active and inactive are the calls of the source.

Assays:
Escherichia coli = assay: microbe, parasite or virus in culture
[1] = biological target: Voltage-gated inwardly rectifying potassium channel KCNH2 (Homo sapiens, UniProt Q12809); conditions: Potency;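 note: confirmatory quantitative high-throughput screen measuring inhibition of hERG channel activity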
INS1 [2] = assay: inhibitors of cytokine-induced nitrite release, dose response, cell-based, Griess absorbance, INS-1E, dry powder (AID 488866); assay type: functional; conditions: Rattus norvegicus
[3] = biological target: T1, Voltage-gated N-type calcium channel alpha-1B subunit/Amyloid beta A4 precursor protein-binding family A member 1 (Homo sapiens, UniProt Q00975+Q02410); assay: disruptors of Mint-PDZ/N-type channel peptide interaction – biochemical, HTRF, SAR follow-up (AID 2489); assay type: functional
T1 sequence (Q00975 whole entry): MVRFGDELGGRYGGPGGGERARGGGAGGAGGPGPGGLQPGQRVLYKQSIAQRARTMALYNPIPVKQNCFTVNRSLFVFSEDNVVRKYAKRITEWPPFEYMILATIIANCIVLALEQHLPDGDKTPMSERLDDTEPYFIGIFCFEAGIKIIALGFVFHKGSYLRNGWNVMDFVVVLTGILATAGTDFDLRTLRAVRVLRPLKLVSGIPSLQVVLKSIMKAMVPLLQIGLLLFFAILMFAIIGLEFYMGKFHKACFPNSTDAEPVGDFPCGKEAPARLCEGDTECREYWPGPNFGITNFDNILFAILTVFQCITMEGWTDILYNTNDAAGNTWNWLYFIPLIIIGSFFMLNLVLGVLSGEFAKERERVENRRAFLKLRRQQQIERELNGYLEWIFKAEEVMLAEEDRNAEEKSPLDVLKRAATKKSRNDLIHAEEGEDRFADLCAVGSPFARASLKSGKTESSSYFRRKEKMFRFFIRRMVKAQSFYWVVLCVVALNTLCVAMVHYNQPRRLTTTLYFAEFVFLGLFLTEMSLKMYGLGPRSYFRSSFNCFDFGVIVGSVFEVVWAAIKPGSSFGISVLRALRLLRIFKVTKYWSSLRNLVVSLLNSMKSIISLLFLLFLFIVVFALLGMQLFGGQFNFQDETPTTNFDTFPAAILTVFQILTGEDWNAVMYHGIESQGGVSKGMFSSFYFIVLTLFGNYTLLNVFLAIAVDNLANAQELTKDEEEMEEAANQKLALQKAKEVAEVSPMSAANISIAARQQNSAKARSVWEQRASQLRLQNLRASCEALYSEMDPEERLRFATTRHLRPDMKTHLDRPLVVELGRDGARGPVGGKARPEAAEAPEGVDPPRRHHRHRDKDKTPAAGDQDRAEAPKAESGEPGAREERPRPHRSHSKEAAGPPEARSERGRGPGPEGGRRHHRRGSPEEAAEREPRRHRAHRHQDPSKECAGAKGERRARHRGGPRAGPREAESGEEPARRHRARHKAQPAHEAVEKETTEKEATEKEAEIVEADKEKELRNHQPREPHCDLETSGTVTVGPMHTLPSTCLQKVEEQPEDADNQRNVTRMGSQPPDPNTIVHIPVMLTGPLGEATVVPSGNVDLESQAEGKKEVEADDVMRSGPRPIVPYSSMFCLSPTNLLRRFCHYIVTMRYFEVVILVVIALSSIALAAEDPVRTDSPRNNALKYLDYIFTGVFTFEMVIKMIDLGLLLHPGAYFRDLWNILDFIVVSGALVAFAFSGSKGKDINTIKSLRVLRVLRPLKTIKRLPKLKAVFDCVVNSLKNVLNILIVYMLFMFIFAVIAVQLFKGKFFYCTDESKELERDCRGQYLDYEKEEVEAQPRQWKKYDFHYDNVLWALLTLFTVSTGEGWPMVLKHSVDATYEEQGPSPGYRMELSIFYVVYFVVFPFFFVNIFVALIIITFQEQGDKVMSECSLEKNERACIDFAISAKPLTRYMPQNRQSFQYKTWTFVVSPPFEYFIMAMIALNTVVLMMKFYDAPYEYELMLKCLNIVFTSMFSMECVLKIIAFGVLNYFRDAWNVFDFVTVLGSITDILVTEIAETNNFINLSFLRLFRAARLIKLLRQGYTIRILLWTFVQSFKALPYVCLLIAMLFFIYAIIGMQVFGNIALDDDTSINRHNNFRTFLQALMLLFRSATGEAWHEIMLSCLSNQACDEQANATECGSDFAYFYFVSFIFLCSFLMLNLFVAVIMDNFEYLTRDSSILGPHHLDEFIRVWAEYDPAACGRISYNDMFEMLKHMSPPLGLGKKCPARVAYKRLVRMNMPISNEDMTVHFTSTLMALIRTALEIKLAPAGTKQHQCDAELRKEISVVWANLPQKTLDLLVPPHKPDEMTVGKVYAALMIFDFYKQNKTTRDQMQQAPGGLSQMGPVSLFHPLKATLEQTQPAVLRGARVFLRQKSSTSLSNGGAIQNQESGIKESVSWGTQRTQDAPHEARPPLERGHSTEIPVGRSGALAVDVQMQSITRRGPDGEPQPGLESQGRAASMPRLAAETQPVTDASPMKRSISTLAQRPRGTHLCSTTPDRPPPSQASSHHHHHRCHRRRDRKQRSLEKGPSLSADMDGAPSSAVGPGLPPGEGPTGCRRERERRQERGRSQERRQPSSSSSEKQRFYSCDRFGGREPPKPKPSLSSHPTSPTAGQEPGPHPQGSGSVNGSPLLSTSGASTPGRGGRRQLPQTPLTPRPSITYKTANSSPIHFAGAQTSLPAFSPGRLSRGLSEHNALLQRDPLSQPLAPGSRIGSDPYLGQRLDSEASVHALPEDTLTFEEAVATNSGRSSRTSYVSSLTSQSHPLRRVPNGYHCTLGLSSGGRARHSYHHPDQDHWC
T1 sequence (Q02410 whole entry): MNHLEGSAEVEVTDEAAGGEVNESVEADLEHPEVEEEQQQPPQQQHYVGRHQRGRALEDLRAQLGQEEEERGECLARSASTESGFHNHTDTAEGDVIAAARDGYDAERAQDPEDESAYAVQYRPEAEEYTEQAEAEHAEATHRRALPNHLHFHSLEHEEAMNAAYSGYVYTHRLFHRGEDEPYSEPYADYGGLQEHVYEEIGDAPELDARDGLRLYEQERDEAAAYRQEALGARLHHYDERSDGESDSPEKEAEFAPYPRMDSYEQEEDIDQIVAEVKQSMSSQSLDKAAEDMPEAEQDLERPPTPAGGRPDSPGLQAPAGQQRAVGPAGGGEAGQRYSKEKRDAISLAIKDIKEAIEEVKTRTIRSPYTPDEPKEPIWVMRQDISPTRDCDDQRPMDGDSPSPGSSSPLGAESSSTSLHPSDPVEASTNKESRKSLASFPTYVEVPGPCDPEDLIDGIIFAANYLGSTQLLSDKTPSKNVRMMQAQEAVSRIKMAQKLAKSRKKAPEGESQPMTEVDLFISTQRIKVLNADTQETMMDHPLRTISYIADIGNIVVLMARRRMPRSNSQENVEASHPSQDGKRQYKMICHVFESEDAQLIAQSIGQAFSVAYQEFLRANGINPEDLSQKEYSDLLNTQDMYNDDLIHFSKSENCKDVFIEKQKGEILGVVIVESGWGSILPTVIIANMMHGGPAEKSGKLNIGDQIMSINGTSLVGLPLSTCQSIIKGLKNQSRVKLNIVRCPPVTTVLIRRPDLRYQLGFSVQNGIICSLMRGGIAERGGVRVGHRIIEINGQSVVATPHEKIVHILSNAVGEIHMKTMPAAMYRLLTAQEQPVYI

[4] = biological target: T1, Voltage-gated N-type calcium channel alpha-1B subunit/Amyloid beta A4 precursor protein-binding family A member 1; assay: disruptors of Mint-PDZ/N-type channel peptide interaction – biochemical, HTRF, set 2, SAR follow-up (AID 434980); assay type: functional
SUMO E1/E2 = SUMO E1/E2 (Homo sapiens, UniProt P63279+Q9UBE0+Q9UBT2); assay: SAR analysis of SUMOylation using HTRF in an in-Vitro dose response assay. [Related pubchem assays (depositor defined):AID2006, AID2011, AID2018, AID2069, AID2658]; assay type: functional
[5] = biological target: Ras and Rab interactor 1/Tyrosine-protein kinase ABL1 (Homo sapiens, UniProt P00519+Q13671); assay type: functional;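 note: biochemical TR-FRET dose-response test measuring inhibition of binding between Rin1 and Abl proteins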
[6] = biological target: Dual specificity tyrosine-phosphorylation-regulated kinase 1A (Rattus norvegicus, UniProt Q63470); assay type: biochemical, Homo sapiens
SUMO-activating enzyme [7] = biological target: T2, SUMO-activating enzyme (Homo sapiens, UniProt Q9UBT2); assay: inhibitors of in vitro SUMOylation cascade, primary screen, biochemical, HTRF, uHTS (AID 2006); assay type: protein-complex assay
T2 sequence (Q9UBE0 whole entry): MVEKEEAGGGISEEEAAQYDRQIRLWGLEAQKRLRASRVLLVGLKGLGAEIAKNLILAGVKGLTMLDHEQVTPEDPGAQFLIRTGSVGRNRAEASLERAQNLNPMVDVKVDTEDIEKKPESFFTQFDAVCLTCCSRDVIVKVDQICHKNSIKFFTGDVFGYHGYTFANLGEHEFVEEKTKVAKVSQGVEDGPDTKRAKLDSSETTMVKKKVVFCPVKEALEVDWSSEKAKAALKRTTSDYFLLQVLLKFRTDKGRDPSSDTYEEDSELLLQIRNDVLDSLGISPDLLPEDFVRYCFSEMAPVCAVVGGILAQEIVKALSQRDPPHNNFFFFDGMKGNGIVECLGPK
T2 sequence (Q9UBT2 whole entry): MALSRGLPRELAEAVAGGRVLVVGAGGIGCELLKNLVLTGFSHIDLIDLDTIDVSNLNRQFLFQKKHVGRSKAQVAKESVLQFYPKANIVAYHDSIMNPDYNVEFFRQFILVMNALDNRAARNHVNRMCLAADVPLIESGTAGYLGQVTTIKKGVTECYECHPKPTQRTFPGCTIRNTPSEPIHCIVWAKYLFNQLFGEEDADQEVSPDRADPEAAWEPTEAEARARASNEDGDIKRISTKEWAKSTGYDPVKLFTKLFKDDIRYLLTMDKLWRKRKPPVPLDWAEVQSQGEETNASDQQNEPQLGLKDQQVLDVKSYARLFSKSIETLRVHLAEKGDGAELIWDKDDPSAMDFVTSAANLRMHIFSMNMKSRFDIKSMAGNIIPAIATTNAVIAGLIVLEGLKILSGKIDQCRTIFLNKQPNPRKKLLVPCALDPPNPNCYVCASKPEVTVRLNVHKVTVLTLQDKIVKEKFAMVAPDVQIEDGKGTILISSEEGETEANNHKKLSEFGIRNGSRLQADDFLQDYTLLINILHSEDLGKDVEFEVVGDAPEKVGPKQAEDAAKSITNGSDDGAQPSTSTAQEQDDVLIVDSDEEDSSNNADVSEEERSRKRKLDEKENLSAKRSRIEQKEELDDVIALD

SUMO-activating enzyme [8] = biological target: T2, SUMO-activating enzyme; assay: SUMOylation inhibitor hit validation, confirmation, SUMOylation inhibitor project, biochemical, AlphaScreen (AID 2018); assay type: functional
Large T antigen = Large T antigen (Simian virus 40, UniProt P03070); assay type: functional, Betapolyomavirus macacae;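 note: Confirmatory-stage PubChem screen for compounds that inhibit SV40 T antigen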
Chain of Large T antigen (P03070 whole entry): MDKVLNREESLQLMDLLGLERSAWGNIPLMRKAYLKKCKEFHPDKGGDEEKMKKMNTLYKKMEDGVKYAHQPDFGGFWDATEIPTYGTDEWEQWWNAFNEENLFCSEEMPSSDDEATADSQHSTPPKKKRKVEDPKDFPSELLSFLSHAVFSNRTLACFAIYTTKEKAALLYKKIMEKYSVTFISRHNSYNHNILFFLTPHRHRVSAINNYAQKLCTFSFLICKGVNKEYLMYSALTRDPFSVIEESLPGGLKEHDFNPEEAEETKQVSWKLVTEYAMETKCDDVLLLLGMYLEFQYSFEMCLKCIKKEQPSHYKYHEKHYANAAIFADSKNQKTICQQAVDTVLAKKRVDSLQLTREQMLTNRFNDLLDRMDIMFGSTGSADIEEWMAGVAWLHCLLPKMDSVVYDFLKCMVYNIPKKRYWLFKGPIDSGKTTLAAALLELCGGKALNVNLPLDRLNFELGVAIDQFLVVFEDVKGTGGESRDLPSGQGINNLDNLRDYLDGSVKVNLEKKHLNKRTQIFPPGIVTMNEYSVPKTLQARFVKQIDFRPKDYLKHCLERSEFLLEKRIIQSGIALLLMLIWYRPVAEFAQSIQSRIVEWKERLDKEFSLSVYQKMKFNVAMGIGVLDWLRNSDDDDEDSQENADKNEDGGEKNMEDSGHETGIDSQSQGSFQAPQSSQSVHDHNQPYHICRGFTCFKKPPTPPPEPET

[9] = biological target: Cyclin-dependent kinase 5/CDK5 activator 1 (Homo sapiens, UniProt Q00535); assay: CDK5/p35 kinase inhibitors, dose response, biochemical, cherry-picked samples, set 2 (AID 504545)
[10] = biological target: Induced myeloid leukemia cell differentiation protein Mcl-1 (Homo sapiens, UniProt Q07820); assay type: functional
[11] = cytotoxicity in HMLE control line with eGFP shRNA, dose response, counter-screen for HMLE_sh_ECad selective toxicity project, cell-based, HMLE_sh_eGFP, luminescence (AID 463074); assay type: functional, Homo sapiens;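 note: HMLE human mammary epithelial cells expressing control shRNA against eGFP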
[12] = Luminescence Cell-Based Dose Retest to Confirm Inhibitors of Cancer Stem Cells. [Related pubchem assays (depositor defined):AID2717, AID2721]; assay type: functional; conditions: Homo sapiens
[13] = biological target: T3, Heat shock factor protein 1 (Mus musculus, UniProt P38532); assay: inhibition of MG132-induced HSE-luciferase signal, confirmation, cell-based, NIH3T3, luminescence, dose retest (AID 2382); assay type: functional;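 note: NIH3T3 fibroblasts with HSF1-driven luciferase reporter stressed by proteasome inhibitor MG132; luminescence from HSF1-driven luciferase expression after 8 hours of MG132 stress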
T3 sequence (P38532 whole entry): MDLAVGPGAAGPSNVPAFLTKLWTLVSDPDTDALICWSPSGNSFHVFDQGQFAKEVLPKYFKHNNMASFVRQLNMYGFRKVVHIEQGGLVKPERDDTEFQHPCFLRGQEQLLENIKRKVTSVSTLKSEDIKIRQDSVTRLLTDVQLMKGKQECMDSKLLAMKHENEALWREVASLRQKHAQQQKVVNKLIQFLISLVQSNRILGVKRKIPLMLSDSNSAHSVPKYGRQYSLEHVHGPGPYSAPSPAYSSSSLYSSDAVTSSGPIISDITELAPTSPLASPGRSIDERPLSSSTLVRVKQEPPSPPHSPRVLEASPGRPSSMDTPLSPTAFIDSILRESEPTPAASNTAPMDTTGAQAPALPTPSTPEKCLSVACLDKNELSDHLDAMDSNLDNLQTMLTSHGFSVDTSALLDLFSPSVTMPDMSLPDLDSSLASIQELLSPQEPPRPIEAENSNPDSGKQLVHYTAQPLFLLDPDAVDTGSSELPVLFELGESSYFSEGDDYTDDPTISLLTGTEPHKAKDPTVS

INS1 [14] = assay: beta cell apoptosis inhibitors, cytokine rescue, dose response, luminescence, retest (AID 449756); assay type: functional, cell-based; conditions: Rattus norvegicus;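 note: cell death triggered by IL-1 beta plus TNF-alpha plus IFN-gamma mixture; protective hits raise ATP signal compared with cytokine alone wells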

For CCOC(=O)c1ccc(NC(=O)c2cn(CCC#N)nc2-c2ccc3c(c2)OCCO3)cc1, the AC50 (Escherichia coli) was 30.3 µM (active).
For C[N+]1(C)C2CCC1CC(OC(=O)c1c[nH]c3ccccc13)C2 (configuration not stated), the AC50 [1] was 25.1 µM (inconclusive).
In the case of COc1ccc(S(=O)(=O)N(C)C[C@@H]2Oc3c(NC(=O)Nc4ccccc4-c4ccccc4)cccc3C(=O)N([C@@H](C)CO)C[C@H]2C)cc1, the AC50 (INS1 [2]) is reported as 33.4 µM (active).
With Cc1ccccc1CNC(=O)COC(=O)c1cc(-c2ccco2)nc2ccccc12 the IC50 [3] was 20.2 µM (active), the IC50 [4] was 10.9 µM (active) and the IC50 (SUMO E1/E2) was 3.83 µM (active).
For COc1cc2c(ccc3cc(OC)c(OC)c(O)c32)cc1O, the IC50 [5] was 35.2 µM (inactive), the AC50 [6] was 0.406 µM (active) and the IC50 (SUMO-activating enzyme [7]) was 13.9 µM (active). For the same molecule, the IC50 (SUMO-activating enzyme [8]) was 2.89 µM (active), the IC50 (Large T antigen) was 9.72 µM (active) and the AC50 [9] was 2.19 µM (active). For the same molecule, the IC50 [10] was 1.95 µM (active).
In the case of Cc1oc(/N=C/c2ccccc2)c(C#N)c1C, the AC50 [11] is reported as 33.8 µM (active), the AC50 [12] is reported as > 195 µM (inactive) and the EC50 [13] is reported as > 195 µM (not active). The AC50 (INS1 [14]) was > 260 µM (inactive).
